“Also recorded” adds a separate entry of the source. d = 2'-deoxy (DNA); r = 2'-OH (RNA)
What was measured:
[1] = test system: EGFR, β1 integrin, Akt, MEK, GLUT3, glycolytic enzymes in T4-2 cells; assay: Western blots of signaling intermediates, GLUT3 and metabolic enzymes in 3D lrECM cultures of T4-2 cells; format: cell-based, human; conditions: 3D lrECM; for recovery of β1 integrin expression and Akt activity by supplementation: T4-2 cells reverted by IA 20 μM or 1.75 mM glucose, PEP 0.5 mM, ESCA 20 μM
Experimental: Cell colonies were separated from lrECM gels by shaking in PBS containing 5 mM EDTA and the proteinase inhibitor cocktail set I (Calbiochem) on ice for 30 min. Cells were lysed in lysis buffer (1% NP-40, 1% deoxycholate, 2% SDS, 150 mM NaCl, 20 mM Tris-HCl [pH 7.4] plus 5 mM EDTA and protease inhibitor cocktail set I and phosphatase inhibitor cocktail set I [Calbiochem]) and sonicated three times for 30 sec each. Proteins were separated by SDS-PAGE, transferred to nitrocellulose membranes, and probed with antibodies against the following proteins: phosphorylated MEK, MEK, phosphorylated Akt, Akt, phosphorylated AMPK, AMPK, p70S6K, phosphorylated p70S6K, CHOP, EPAC1 (Cell Signaling), β1 integrin, EGFR, activated EGFR, HIF-1α, (Chemicon International), PFKP (Abgent), GAPDH, GLUT3 (GeneTex), LDHA, PDHE1α, DLAT, DLD, HIF-3α, Rap1, sAC, EPAC2, OGT, Lamin A/C (Santa Cruz Biotechnology), Aldolase (Polysciences), GFPT (ProteinTech Group), HIF-2α (Abcam), and HA-tag (Covance). After probing with HRP-conjugated secondary antibodies, blots were developed using SuperSignal West Femto chemiluminescence reagent (Pierce Biotechnology). Images were captured using Fluor Chem 8900 imager (Alpha Innotech).

Rap1 = assay: Measurement of Rap1 activity (GST-RalGDS-RBD pull-down) in T4-2 cells; format: cell-based, human; conditions: T4-2 cells treated with IA 20 μM or 1.75 mM glucose; PEP 0.5 mM, ESCA 20 μM
Experimental: Rap1 activity was measured as described previously (Itoh et al., 2007). Briefly, cell colonies were extracted from lrECM as described above, and lysed in lysis buffer (50 mM Tris-HCl [pH 7.4], 500 mM NaCl, 1% NP40, 2.5 mM MgCl2, 10% glycerol, 10 μg/ml aprotinin and 10 μg/ml leupeptin) at 4° C. for 30 min. Lysates were cleared by centrifugation at 15,000×g at 4° C. for 15 min. Supernatants (containing 300 μg protein in 300 μl) were incubated with 15 μg of GST-tagged RalGDS-RBD fusion protein immobilized on Glutathione Sepharose 4B beads (GE Healthcare), at 4° C. for 1 hr. Beads were washed trice in lysis buffer and resuspended in Laemmli buffer. Samples were separated by SDS-PAGE, followed by transfer to polyvinylidene fluoride membranes (0.2 μm pore) and immunoblotting using anti-Rap1 antibody.

T4-2 cells [2] = conditions: for rescue of the malignant (disorganized) phenotype by supplementation: T4-2 cells reverted by IA 20 μM or 1.75 mM glucose, PEP 0.5 mM, pyruvate; for rescue of the malignant (disorganized) phenotype by supplementation / phenotypic reversion of the malignant phenotype / basal polarity / organized acinar structures / growth / proliferation (cell numbers at the colony mid-section, EdU incorporation): 3D lrECM; for phenotypic reversion of the malignant phenotype: 2DG 4 mM, IA 20 μM, OX 50 mM, Azs 20 μM, DON 20 μM, BADGP 5 mM, TM 10 ng/ml, OGM 4 ng/ml, Rapa 0.01-1.0 μM; for basal polarity / organized acinar structures / growth / proliferation (cell numbers at the colony mid-section, EdU incorporation): same inhibitor concentrations as E1
Experimental: (§1) HMT-3522 cells were cultured on tissue culture plastic (2D) and in 3D lrECM gels with H14 medium, a 1:1 mix of DMEM/F12 (UCSF Cell Culture Facility) supplemented with 250 ng/ml insulin, 10 μg/ml transferrin, 2.6 ng/ml sodium selenite, 0.1 nM β-estradiol, 1.4 μM hydrocortisone and 5 μg/ml prolactin but no serum. S1 cells were additionally supplemented with 10 ng/ml EGF. MDA-MB-231 and HCC70 cells were cultured in DMEM and RPMI1640, respectively, and were supplemented with 10% fetal bovine serum (FBS).
(§2) For 3D lrECM cultures, S1 and T4-2 cells were seeded at 840,000 and 600,000 cells per cm3 respectively in lrECM gel (Cultrex), overlaid with H14 medium. MDA-MB-231 and HCC70 cells were seeded at 625,000 cell per cm3 and overlaid with H14 medium supplemented with 1% FBS. Cells were used for each assay after 10 days, unless otherwise indicated.
Pieces of lrECM gel containing cell colonies were suspended in approximately the same volume of phosphate buffered saline (PBS) and directly spread on glass slides. After brief air-drying, colonies were fixed with 3.7% paraformaldehyde (PFA) in PBS at room temperature (RT) for 10 min, washed with PBS containing 0.1 mM glycine, and permeabilized with 1:1 methanol/acetone at −20° C. for 10 min. After blocking with IF buffer (0.2% Triton X-100, 0.1% BSA [radioimmunoassay grade], 0.05% Tween 20, 7.7 mM NaN3 in PBS) containing 10% goat serum and 1% goat F(ab′)2 anti-mouse immunoglobulin G (IgG; Caltag) at RT for 30 min, colonies were stained with anti-α6 integrin antibody (Chemicon International) at 4° C. overnight. Colonies were washed extensively with IF buffer, and stained with Alexa 568-labeled anti-rat IgG antibody at RT for 2 hr. Colonies were washed with IF buffer again, and nuclei were stained with DAPI at RT for 10 min. Slides were briefly washed with PBS and mounted with 50% glycerol in PBS.
To test whether increased glucose metabolism itself is required for oncogenic signaling events, we utilized 3D lrECM cultures of HMT-3522, a breast cancer progression series which includes non-malignant (S1) and malignant (T4-2) human breast epithelial cells from the same individual (Briand et al., 1987; Petersen et al., 1992; Rizki et al., 2008). Using these cells, we have described the involvement and reciprocity of multiple signaling pathways including EGFR, β1 integrin, PI3K-Akt and MEK-ERK in oncogenic events (Beliveau et al., 2010; Bissell et al., 2005). […] We thus used this “phenotypic reversion” of the cancer cells as an assay to examine how the signaling integration plan of the breast acini could involve glucose metabolism.

S1 cells = assay: 3D lrECM culture of non-malignant S1 cells: acinar morphology and growth; format: cell-based, human; conditions: 2DG 4 mM, OGM 4 ng/ml
Experimental: as §1, §2
Pieces of lrECM gel containing cell colonies were suspended in approximately the same volume of phosphate buffered saline (PBS) and directly spread on glass slides. After brief air-drying, colonies were fixed with 3.7% paraformaldehyde (PFA) in PBS at room temperature (RT) for 10 min, washed with PBS containing 0.1 mM glycine, and permeabilized with 1:1 methanol/acetone at −20° C. for 10 min. […]

T4-2 cells [3] = assay: Mitochondrial activity (MitoTracker oxidation) assay in 3D lrECM; format: cell-based, human
Experimental: (§3) Cells suspended in 200 μl lrECM were seeded in 12 well glass-bottom plates (14 mm diameter; MatTek Corporation). Gels were overlaid with 500 μl H14 media and cultured for 10 days before each assay unless otherwise described.
For mitochondrial activity, we slightly modified the method described previously (Morici et al., 2007). Briefly, cells were incubated with 2 μM MitoTracker® Orange CM-H2 TMRos (Invitrogen) for 1 hour and fixed with PFA as above. Cells were counterstained with Hoechst 33342 (Invitrogen), which is known also to bind to DNA stoichiometrically, then MitoTracker and Hoechst staining were measured by taking z-section images from top to bottom of the gels using confocal microscopy.
(§4) In each assay, one well, containing only lrECM, was made for background measurements. Glucose uptake measured by 2DG uptake, lactate production and MitoTracker staining were normalized using total DNA levels, and presented relative to that of control (either S1 or non-treated T4-2 cells).

T4-2 cells [4] = assay: Glucose uptake assay (IRDye800CW-2DG) in 3D lrECM; format: cell-based, human
Experimental: as §3
For glucose uptake assay, cells were incubated with 1 μM of IRDye800CW-2DG (LI-COR Biosciences) for 1 hour, fixed within gels with 4% paraformaldehyde (PFA) in PBS for 30 min. and stained with DRAQ5 (1:10000 dilution), an infrared dye that binds stoichiometrically to DNA, for 30 min. Cells were extensively washed with PBS, then IRDye800-2DG uptake together with DRAQ5 staining were measured by using Odyssey Infrared Imaging System (LI-COR Biosciences).
as §4

T4-2 cells [5] = assay: Lactate production assay in 3D lrECM; format: cell-based, human
Experimental: as §3
For lactate production, on day 9, conditioned-media were harvested to measure lactate remaining in the 200 μl of the gel (assuming equilibrium between medium and gel, C0 nmol/μl). […] After 24 hours, total culture medium was harvested for measurement of final lactate concentrations (C nmol/μl) and total volumes (V μl) of the conditioned-media, and the cells in gel were fixed with PFA as above. Concentration of lactate in each sample was measured using a lactate assay kit (BioVision). Net lactate production within 24 hours (N) was calculated as follows: N=C×(V+200)−C0×200. Fixed cells were stained with DRAQ5, to measure total level of DNA as a surrogate for number of cells, and the staining was measured as above.
as §4

T4-2 cells [6] = assay: siRNA knockdown in T4-2 cells cultured in 3D-on top (3D-OT) lrECM; format: cell-based, human; conditions: 3 days
Experimental: For experiments that need to be done in shorter-term (e.g. cultures of siRNA-transfected cells or for live imaging), cells were seeded at 60,000 cells per cm2 on top (3D-OT) of lrECM gels overlaid with H14 medium containing 5% (v/v) lrECM. Cells were harvested after 3 days.
Predesigned siRNA duplexes targeting GLUT3, GFPT1, GFPT2 and OGT, as well as control siRNA were obtained from Ambion. The other siRNA duplexes were chemically synthesized and purchased from Hokkaido System Science. The sequences are as follows:
For transfection of each siRNA into T4-2 cells, Lipofectamine RNAi MAX (Invitrogen) was used, according to the manufacturer's instruction. Cells were trypsinized 36 hrs after transfection and cultured in 3D-OT lrECM for 3 days before harvest.

## C=C(OP(=O)(O)O)C(=O)O [PEP, phosphoenolpyruvate]
[1]
  recovery of β1 integrin expression and Akt activity by supplementation: partially recovered
Rap1
  Rap1 reactivation by supplementation: Rap1 reactivation
T4-2 cells [2]; ESCA 20 μM
  rescue of the malignant (disorganized) phenotype by supplementation: reproduced the disorganized structure

## CC(=O)N[C@H]1[C@@H](OCc2ccccc2)O[C@H](CO)[C@H](O)[C@@H]1O [BADGP, Benzyl-2-acetamido-2-deoxy-α-D-galactopyranoside]
T4-2 cells [2]; T4-2 cells
  phenotypic reversion of the malignant phenotype: do induce phenotypic reversion; also recorded: induced phenotypic reversion

## CC[C@H]1/C=C/C=C/C[C@@H](C)[C@H](O)[C@@](C)(O)C(=O)[C@@H](C)[C@H](O)[C@@H](C)C(=O)[C@@H](C)[C@H](O)[C@@H](C)/C=C/C(=O)O[C@@H]2[C@H](C)[C@H](CC1)O[C@]1(CC[C@H](C)[C@H](C[C@@H](C)O)O1)[C@H]2C [OGM, Oligomycin]
S1 cells
  acinar morphology, basal polarity and growth rate of non-malignant cells: lost basal tissue polarity
T4-2 cells [2]; T4-2 cells
  phenotypic reversion of the malignant phenotype: do not induce phenotypic reversion
  basal polarity / organized acinar structures: did not induce organized structures
  growth / proliferation (cell numbers at the colony mid-section, EdU incorporation): suppressing proliferation significantly

## CO[C@@H]1[C@@H]2OP(=O)(O)OC[C@H]2O[C@H]1n1c(Sc2ccc(Cl)cc2)nc2c(N)ncnc21 [ESCA, 8CPT-2′-OMe-cAMP]
[1]
  recovery of β1 integrin expression and Akt activity by supplementation: partially restored
Rap1
  Rap1 reactivation by supplementation: reactivated Rap1
T4-2 cells [2]; ESCA 20 μM
  rescue of the malignant (disorganized) phenotype by supplementation: loss of tissue polarity
T4-2 cells [2]; T4-2 cells treated with IA 20 μM or 1.75 mM glucose, ESCA 20 μM
  restoration of proliferation by supplementation: did not restore proliferation to the level of non-treated cultures

## Tunicamycin [TM]
T4-2 cells [2]; T4-2 cells
  phenotypic reversion of the malignant phenotype: do not induce phenotypic reversion; also recorded: did not lead to phenotypic reversion
T4-2 cells [2]; T4-2 cells, increasing amounts of tunicamycin (data not shown)
  cell death: induced significant cell death

## [N-]=[N+]=CC(=O)OC[C@H](N)C(=O)O [AZS, Azaserine]
[1]; T4-2 cells, Western blot
  levels and/or activities of EGFR, β1 integrin, Akt and MEK (oncogenic signaling): suppression of activation of oncogenic signaling
[1]; T4-2 cells, Azs 20 μM, DON 20 μM
  EGFR expression and activity: significantly down-regulated
T4-2 cells [2]; T4-2 cells
  phenotypic reversion of the malignant phenotype: do induce phenotypic reversion; also recorded: induced the repertoire of the reversion phenotype
  basal polarity / organized acinar structures: re-establishment of tissue polarity
  growth / proliferation (cell numbers at the colony mid-section, EdU incorporation): growth arrest
T4-2 cells [3]
  mitochondrial activity (oxidation): remained unaltered
T4-2 cells [4]
  glucose uptake: significantly down-regulated
T4-2 cells [5]
  lactate production: significantly down-regulated

## CC(Sc1nc2ccccc2[nH]1)C(=O)N/N=C/c1cc(Br)ccc1O (centres unmarked) [KH7]
T4-2 cells [2]; T4-2 cells reverted in 1.75 mM glucose, then 5.5 mM glucose with KH7
  reactivation (disorganization, Rap1, β1 integrin and Akt) on raising glucose from 1.75 mM to 5.5 mM: almost completely abolished
T4-2 cells [2]; T4-2 cells
  phenotypic reversion of the malignant phenotype: do induce phenotypic reversion

## sAC siRNA: chemically synthesized siRNA duplex targeting sAC, SEQ ID NO: 7 and SEQ ID NO: 8 (chain 1 AUGUAGCCUGGAGAUCCAUTT; chain 2 AUGGAUCUCCAGGCUACAUTT; sugars from the 5' end r19 d2, backbone not given here)
T4-2 cells [6]
  phenotype after siRNA knockdown (reversion): induced phenotypic reversion

## GAPDH siRNA: chemically synthesized siRNA duplex targeting GAPDH, SEQ ID NO: 1 and SEQ ID NO: 2 (chain 1 GAGCCACAUCGCUCAGACA; chain 2 UGUCUGAGCGAUGUGGCUC; listed as RNA, chemistry not fully specified)
T4-2 cells [6]
  phenotype after siRNA knockdown (reversion): essentially reproduced the above results

— patent publication US9689042B2, “Use of glycolytic pathways for inhibiting or measuring oncogenic signaling” (The Regents of the University of California, priority 2012, dated 2017)
